A short description of data set [1]: Liver microsomal metabolic stability, rat. The class given is in vitro ADME. As to conditions: liver microsomes, 0.5 mg/mL microsomes, 1 μM compound, NADPH, read-out: Liver microsomal stability T1/2. As to the method:
(§1) The reaction was stopped with tinidazole-containing acetonitrile at 0 min, 5 min, 10 min and 30 min, respectively. After vortexing for 10 min and centrifuging at 15,000 rmp for 10 min, 50 μL of the supernatant was injected into a 96-well plate. The metabolic stability of the compound was calculated by determining the relative reduction of the drug, calculated as half-life T1/2.

Data set [2] can be described thus: Liver microsomal metabolic stability, dog. It is filed as in vitro ADME. The conditions noted are these: liver microsomes, 0.5 mg/mL microsomes, 1 μM compound, NADPH, read-out: Liver microsomal stability T1/2. Here is the method:
as §1
A general note: Microsomes from liver hold many membrane-bound enzymes, among them those of drug oxidation.

A short description of data set [3]: Liver microsomal metabolic stability, human. It is filed as in vitro ADME. The conditions noted are these: liver microsomes, 0.5 mg/mL microsomes, 1 μM compound, NADPH, read-out: Liver microsomal stability T1/2. As to the method:
as §1

The subject of another data set is Colo-205 cells. Kind of data set: Colo-205 tumor cell proliferation, CCK-8, 72 hours. The class given is cell-based. As to conditions: for IC50: read-out: Colo-205 IC50; for cell proliferation inhibitory activity (in words): Colo-205. Here is the method:
1. Test method: Colo-205 cells (ATCC) in logarithmic growth phase were inoculated into a 96-well culture plate at an appropriate density with 90 μL per well. After overnight culture, different concentrations of the compound were added and acted for 72 hours, and a solvent control group (negative control) was set. After the compound was acted on cells for 72 hours, the effect of the compound on cell proliferation was detected by the cell counting kit CCK-8 (Dojindo), and 10 μL of CCK-8 reagent was added to each well. After the plate was placed in a 37° C. incubator for 2 to 4 hours, a full-wavelength microplate reader SpectraMax 190 was adopted for obtaining the readings with a measured wavelength of 450 nm. […] The IC50 value was obtained by four-parameter regression with the software attached to the microplate reader.

The target of another data set is T1, ERK1/2 kinase.
T1 construct: fused on or other part: Carna's ERK products carry a GST tag by vendor knowledge
Briefly: ERK1/2 kinase (Carna) inhibitory activity, Caliper mobility shift. It is filed as biochemical. As to conditions: for IC50: read-out: ERK½ IC50. As to the method: (1) Preparation of 1×Kinase buffer; (2) preparation of compound concentration gradient: the initial test concentration of the tested compound was 10 μM, which was 3-fold diluted to 10 concentrations, and a duplicate test was conducted, and then the tested compound was diluted in a 96 well plate to a 100-fold final concentration of 10 different concentrations of solution. […] Log (inhibitor) vs. response—Variable slope of the analysis software GraphPad Prism 5 was used to fit the dose-effect curve to obtain the IC50 value of each compound on the enzyme activity.
2. […] (A<10 nM, 10 nM≤B<200 nM, C≥200 nM)

The nature of data set [4]: In-vivo pharmacokinetic parameters in mice. Details: species or system Balb-c mice. Here is the method: Six male SPF grade SD rats or Balb-c mice (Shanghai Sipple-Bikai Laboratory Animal) were divided into two groups, and the tested compounds were prepared into appropriate solutions or suspensions; one group was administered intravenously (with a dose of 1 mg/kg), and the other group was administered orally (with a dose of 5 mg/kg). Blood samples were collected by jugular vein puncture, and each sample was collected with a volume of about 0.2 mL/time point, and heparin sodium was used for anticoagulation. The time points of blood collection were listed below: 5, 15 and 30 min […], 1, 2, 4, 6, 8 and 24 h after administration; the collected blood samples were placed on ice and centrifuged to separate plasma (centrifugation conditions: 8,000 rpm, 6 min, 2 to 8° C.), and the collected plasma was stored at −80° C. before analysis. Plasma samples were analyzed by LC-MS/MS.
The pharmacokinetic parameters such as AUC0-t, AUC0-∞, MRT0-∞, Cmax, Tmax, T1/2 and Vd of the tested compounds and their mean values and standard deviations were calculated by the pharmacokinetic calculation software WinNonlin5.2 non-compartmental model according to the plasma concentration data. In addition, the bioavailability (F) was calculated by the following formula.
For samples with concentrations below the lower limit of quantitation, while pharmacokinetic parameter calculations were performed, samples sampled before Cmax was reached should be calculated as a zero value and samples sampled after Cmax was reached should be calculated as below limit of quantitation (BLQ).

The subject of data set [5] is Colo-205 transplanted tumor. Briefly: Growth inhibition of nude mice Colo-205 transplanted tumor. As to conditions: 50 mg/kg, qdx21, po. The class given is in vivo. As to the method:
The tumor tissue in the vigorous growth phase was cut into about 1.5 mm^3 and inoculated subcutaneously in the right axilla of nude mice under sterile conditions. The diameter of subcutaneous transplanted tumors in nude mice was measured with a vernier caliper, and the mice were randomly divided into groups when the average tumor volume reached about 130 mm^3. The embodiment compounds (injection water containing 1% Tween 80 were configured to a desired concentration for later use) were orally administered daily at a given dose for three consecutive weeks, and the solvent control group was administered with the same amount of solvent. During the whole test, the diameter of transplanted tumor was measured twice a week, and the mice were weighed at the same time. The calculation formula of tumor volume (TV) is expressed as TV=1/2×a×b^2, wherein a and b represent length and width, respectively. The relative tumor volume (RTV) was calculated according to the measurement results, and the calculation formula is RTV=Vt/V0, wherein V0 is the tumor volume measured when administered in separate cages (i.e., d0), and Vt is the tumor volume at the time of each measurement.

Setting [6] is: male, Balb-c, mouse, plasma, IV, 1 mg/kg.
[7] abbreviates: male, Balb-c, mouse, plasma, PO, 5 mg/kg.
Where [8] appears, read: Homo sapiens, COLO 205, 72 hours, CCK-8, class symbols.
Setting [9] is: Homo sapiens, COLO 205, 72 hours, CCK-8, numeric values.

Like-named read-outs stand apart in the source and are kept apart here.

`Cc1cccc([C@@H](CO)NC(=O)[C@@H](C)N2Cc3ccc(-c4nc(NC5CCOCC5)ncc4Cl)cc3C2=O)c1` [Comparative compound 1, (R)-2-(6-(5-Chloro-2-((tetrahydro-2H-pyran-4-yl)amino)pyrimidin-4-yl)-1-oxoisoindolin-2-yl)-N—((S′)-2-hydroxy-1l-(in-tolyl)ethyl)propanamide, reference compound]: the half-life at 1 μM in data set [1] was 4 min; in data set [2], 40 min; in data set [3] it was 3 min.

In general, IC50 refers to the concentration that gives 50% inhibition. `Cc1cccc([C@@H](CO)NC(=O)[C@@H](C)N2Cc3ncc(-c4nc(NC5CCOCC5)ncc4Cl)cc3C2=O)c1` [Comparative compound 3, (R)-2-(3-(5-Chloro-2-((tetrahydro-2H-pyran-4-yl)amino)pyrimidin-4-yl)-5-oxo-5,7-dihydro-6H-pyrrolo[3,4-b]pyridin-6-yl)-N—((S)-2-hydroxy-1-(m-tolyl)ethyl)propanamide, reference compound]: the IC50 in the data set with Colo-205 cells (Homo sapiens, COLO 205, 72 h) was 53.1 nM. Besides, the half-life at 1 μM is 6 min in data set [1], 201 min in data set [2] and 6 min in data set [3].

Regarding `Cc1cccc([C@@H](CO)NC(=O)[C@@H](C)N2Cc3ccc(-c4ccnc(NC(C)C)n4)c(F)c3C2=O)c1` [Embodiment 29], the IC50 on ERK1/2 kinase (numeric values) was 3.6 nM; with Colo-205 cells (72 hours, CCK-8, class symbols) it was 100 to 1000 nM.

Turning to `Cc1cccc([C@@H](CO)NC(=O)[C@@H](C)N2Cc3ccc(-c4ccnc(NC5CCOCC5)n4)nc3C2=O)c1` [Embodiment 30], the IC50 is 6.9 nM on ERK1/2 kinase (numeric values) and 100 to 1000 nM in the data set on Colo-205 cells (72 hours, CCK-8, class symbols).

Broadly, the AUC(0-inf) is total exposure, with the tail of the curve extrapolated. The low end stands for less exposure, the high end for more exposure. Usually AUC(0-t) stands for exposure summed from dosing to a finite time, without extrapolation to infinity. Higher therefore signals more exposure. For orientation: MRT inf means a mean duration of stay, worked out from the concentration-time curve. What is called clearance is the rate of elimination divided by the concentration. High values mean a high capacity for elimination, low ones a low capacity for elimination. What is called Cmax is the highest concentration seen after dosing. What is called Tmax is the time at which the peak concentration occurs. By T/C is commonly meant the ratio of treated to control. `Cc1cccc([C@@H](CO)NC(=O)[C@@H](C)N2Cc3ccc(-c4nc(NC5CCOCC5)ncc4F)c(F)c3C2=O)c1` [Embodiment 31, (R)-2-(7-Fluoro-6-(5-fluoro-2-((tetrahydro-2H-pyran-4-yl)amino)pyrimidin-4-yl)-1-oxoisoindolin-2-yl)-N—((S)-2-hydroxy-1-(m-tolyl)ethyl)propanamide] displayed a F in data set [4] (PO 5 mg/kg vs IV 1 mg/kg) of 52%. In addition, in data set [4] (setting [6]), the AUC(0-inf) turned out to be 0.407 µM·h, the AUC(0-t) was determined as 0.397 µM·h, the MRT inf came out at 30 min and the clearance is 75 mL/min/kg. The same compound showed a half-life in data set [4] (setting [6]) of 84 min. Moreover, the Vd in data set [4] (male, Balb-c, mouse, plasma, IV, 1 mg/kg, read-out: Vss) is 2 L/kg. Besides, in data set [4] (setting [7]), the AUC(0-inf) was 1.06 µM·h, the AUC(0-t) amounted to 1.05 µM·h, the highest level (Cmax) was 1170 nM and the Tmax amounted to 18 min. This compound also had a half-life in data set [4] (setting [7]) of 90 min. For the same compound, in data set [5], the T/C stood at 27.9%. Also, the “Initial weight (D0)” value in data set [5] (D0) worked out at 20.1 g. For the same compound, the “Terminal weight (D21)” value in data set [5] (D21) amounted to 21.7 g. Moreover, the Initial tumor volume in data set [5] (initial) is 96 ± 21 mm^3. In data set [5] (terminal), this compound yielded a Terminal tumor volume of 271 ± 128 mm^3.

For `Cc1cccc([C@@H](CO)NC(=O)[C@@H](C)N2Cc3ccc(-c4nc(Nc5ccnn5C)ncc4Cl)c(F)c3C2=O)c1` [Embodiment 32], the IC50 on ERK1/2 kinase (numeric values) was 1.4 nM; in the data set with Colo-205 cells (72 hours, CCK-8, numeric values) it was 98.6 nM.

Consider `Cc1cccc([C@@H](CN)NC(=O)[C@@H](C)N2Cc3ccc(-c4nc(NC5CCOCC5)ncc4F)c(F)c3C2=O)c1` [Embodiment 36], for which the “enzyme inhibitory activity (in words)” value in the data set on ERK1/2 kinase is “extremely strong enzyme inhibitory activity”. Further, the results for the IC50 at ERK1/2 kinase (numeric values) and in the data set on Colo-205 cells (setting [8]) were < 1 nM and < 100 nM, respectively. Besides, the “cell proliferation inhibitory activity (in words)” value in the data set with Colo-205 cells is listed as “strong cell proliferation inhibitory activity”.

For the compound `C[C@H](C(=O)N[C@H](CO)c1cccc(Cl)c1)N1Cc2ccc(-c3nc(NC4CCC(F)(F)CC4)ncc3F)c(F)c2C1=O` [Embodiment 38], the half-inhibitory concentration (IC50) at ERK1/2 kinase (class symbols) was < 10 nM; with Colo-205 cells (setting [8]) it was 100 to 1000 nM.

Regarding `C[C@H](C(=O)N[C@H](CO)c1cccc(Cl)c1)N1Cc2ccc(-c3nc(NC4CCC(O)C(F)C4)ncc3F)c(F)c2C1=O` (stereo partly drawn) [Embodiment 39], the “enzyme inhibitory activity (in words)” value with ERK1/2 kinase was “extremely strong enzyme inhibitory activity”. Also, the IC50 was < 10 nM on ERK1/2 kinase (class symbols) and 100 to 1000 nM in the data set on Colo-205 cells (setting [8]).

For the compound `Cc1cc([C@@H](CO)NC(=O)[C@@H](C)N2Cc3ccc(-c4nc(NC5CCOCC5)ncc4F)c(F)c3C2=O)ccn1` [Embodiment 41], the results for the IC50 on ERK1/2 kinase (numeric values) and with Colo-205 cells (setting [8]) were < 1 nM and < 100 nM, respectively.

Turning to `COc1cc(F)cc([C@@H](CO)NC(=O)[C@@H](C)N2Cc3ccc(-c4nc(NC5CC(F)(F)C5)ncc4F)c(F)c3C2=O)c1` [Embodiment 43], the IC50 at ERK1/2 kinase (class symbols) is < 10 nM; in the data set with Colo-205 cells (setting [8]), < 100 nM.

Consider `COc1cc(F)cc([C@@H](CO)NC(=O)[C@@H](C)N2Cc3ccc(-c4nc(Nc5ccnn5C)ncc4F)c(F)c3C2=O)c1` [Embodiment 45], for which the “enzyme inhibitory activity (in words)” value in the data set with ERK1/2 kinase is recorded as “extremely strong enzyme inhibitory activity”. The IC50 on ERK1/2 kinase (numeric values) was < 1 nM; in the data set with Colo-205 cells (setting [8]), < 100 nM. Also, the “cell proliferation inhibitory activity (in words)” value in the data set with Colo-205 cells is listed as “strong cell proliferation inhibitory activity”.

On to `C[C@H](C(=O)NCc1cccc(N(C)C)n1)N1Cc2ccc(-c3nc(NC4CCOCC4)ncc3F)c(F)c2C1=O` [Embodiment 47], for which the values for the IC50 at ERK1/2 kinase (class symbols) and with Colo-205 cells (setting [8]) were < 10 nM and 100 to 1000 nM, respectively.

As to `C[C@H](C(=O)N[C@H](CO)c1cccc(Cl)c1)N1Cc2ccc(-c3nc(NC4CC[C@H](O)[C@@H](F)C4)ncc3F)c(F)c2C1=O` (stereo partly drawn) [Embodiment 50], the half-maximal inhibitory concentration (IC50) is < 10 nM at ERK1/2 kinase (class symbols) and < 100 nM in the data set on Colo-205 cells (setting [8]).

With `Cn1nccc1Nc1nccc(-c2ccn([C@H](CO)c3ccc(Cl)c(F)c3)c(=O)c2)n1` [GDC0994, reference compound], the IC50 is < 10 nM on ERK1/2 kinase (class symbols) and 165 nM in the data set with Colo-205 cells (setting [9]).

In the case of `Cn1nccc1Nc1nccc(-c2cc3c(s2)C(C)(C)N(CCN2CCOCC2)C3=O)n1` [LY3214996, reference compound], the concentration for half-maximal inhibition (IC50) was < 10 nM at ERK1/2 kinase (class symbols) and 316 nM in the data set on Colo-205 cells (setting [9]).

Consider “(R)-2-(6-(5-Chloro-2-((tetrahydro-2H-pyran-4-yl)amino)pyrimidin-4-yl)-4-fluoro-1-oxoisoindolin-2-yl)-N—((S)-2-hydroxy-1-(m-tolyl)ethyl)propanamide [Comparative compound 4, reference compound]”, for which the concentration for half-maximal inhibition (IC50) was 105 nM on ERK1/2 kinase (numeric values) and > 1000 nM with Colo-205 cells (72 hours, CCK-8, class symbols).
